According to the NIST ThermoML archive (doi:10.1016/j.jct.2013.01.004):

Experiments:
[1] = 101.33 kPa, Crystal, Thin-film microcalorimeter
[2] = molar heat capacity at constant pressure; conditions: 101.33 kPa, Crystal, Thin-film microcalorimeter

[O-2].[Zn+2] [zinc(II) oxide]
Conditions	molar entropy, [1] [J/K/mol]	molar heat capacity at constant pressure, [2] [J/K/mol]
1 K	2e-05	6e-05
1.906 K	–	0.0004
2 K	0.0001	0.0004
2.105 K	–	0.0005
2.329 K	–	0.0007
2.579 K	–	0.0009
2.856 K	–	0.0013
3 K	0.0005	0.0015
3.169 K	–	0.0018
3.509 K	–	0.0024
3.893 K	–	0.0033
4 K	0.0012	0.0036
4.319 K	–	0.0045
4.794 K	–	0.0062
5 K	0.0023	0.007
5.322 K	–	0.0085
5.907 K	–	0.0115
6 K	0.004	0.0121
6.557 K	–	0.0158
7 K	0.0064	0.0193
7.279 K	–	0.0217
8 K	0.0096	0.0288
8.084 K	–	0.0296
8.978 K	–	0.0409
9 K	0.0136	0.0414
9.969 K	–	0.0573
10 K	0.0188	0.0577
11 K	0.0252	0.0785
11.07 K	–	0.0803
12 K	0.0332	0.1048
12.3 K	–	0.1145
13 K	0.0428	0.1378
13.64 K	–	0.1629
14 K	0.0545	0.1786
15 K	0.0684	0.2282
15.18 K	–	0.237
16 K	0.085	0.2876
16.82 K	–	0.3415
17 K	0.1045	0.3576
18 K	0.1272	0.439
18.66 K	–	0.5019
19 K	0.1533	0.5323
20 K	0.1833	0.6378
20.68 K	–	0.718
22.98 K	–	1.028
25 K	0.3964	1.349
25.55 K	–	1.448
28.39 K	–	1.989
30 K	0.7254	2.327
31.54 K	–	2.658
35 K	1.169	3.48
35.05 K	–	3.48
38.93 K	–	4.451
40 K	1.714	4.713
43.22 K	–	5.533
45 K	2.341	5.965
48.01 K	–	6.726
50 K	3.035	7.218
53.32 K	–	8.042
55 K	3.781	8.463
59.21 K	–	9.463
60 K	4.569	9.606
65 K	5.382	10.71
65.75 K	–	10.92
70 K	6.216	11.8
73.03 K	–	12.44
75 K	7.065	12.85
80 K	7.928	13.87
81.09 K	–	14.11
85 K	8.798	14.86
90 K	9.675	15.83
90.06 K	–	15.91
95 K	10.56	16.77
99.87 K	–	17.65
100 K	11.44	17.69
110 K	13.21	19.46
110.46 K	–	19.47
120 K	14.98	21.16
120.49 K	–	21.17
130 K	16.73	22.78
130.48 K	–	22.84
140 K	18.48	24.34
140.63 K	–	24.44
150 K	20.21	25.82
150.79 K	–	25.91
160 K	21.92	27.24
160.85 K	–	27.33
170 K	23.61	28.58
170.76 K	–	28.78
180 K	25.28	29.85
181.03 K	–	30.05
190 K	26.93	31.05
191.32 K	–	31.22
200 K	28.55	32.19
201.42 K	–	32.29
210 K	30.15	33.26
211.59 K	–	33.41
220 K	31.72	34.27
221.8 K	–	34.44
230 K	33.26	35.22
232 K	–	35.5
240 K	34.78	36.12
242.17 K	–	36.29
250 K	36.27	36.96
252.15 K	–	37.15
260 K	37.74	37.76
262.28 K	–	37.93
270 K	39.18	38.5
272.28 K	–	38.59
273.15 K	39.63	38.73
280 K	40.59	39.2
282.48 K	–	39.3
290 K	41.98	39.86
292.54 K	–	39.86
298.15 K	43.09	40.36
300 K	43.34	40.48
302.58 K	–	40.86
